# Measured values taken from publication PMC5515969, “Effects of 31 FDA approved small-molecule kinase inhibitors on isolated rat liver mitochondria” (Archives of Toxicology, 2016).
# Counter-ions that a name gives are not always drawn. Like-named read-outs stand apart in the source and are kept apart here.
# What was measured:
# RCC II = target: T1, RCC II (Rattus norvegicus, UniProt P21913+Q641Z9+Q6PCT8+Q920L2); assay: RCC II activity in submitochondrial particles; assay type: biochemical; design: key: activity relative to DMSO-treated controls (control set as 1 = 100%); settings: relative to DMSO treated samples
# T1 construct: Submitochondrial particles were prepared by subjecting the intact mitochondria to three successive freeze–thaw cycles; from tissue; host or cells: rat liver mitochondria, used as submitochondrial particles
# T1 sequence (Q920L2 35-656): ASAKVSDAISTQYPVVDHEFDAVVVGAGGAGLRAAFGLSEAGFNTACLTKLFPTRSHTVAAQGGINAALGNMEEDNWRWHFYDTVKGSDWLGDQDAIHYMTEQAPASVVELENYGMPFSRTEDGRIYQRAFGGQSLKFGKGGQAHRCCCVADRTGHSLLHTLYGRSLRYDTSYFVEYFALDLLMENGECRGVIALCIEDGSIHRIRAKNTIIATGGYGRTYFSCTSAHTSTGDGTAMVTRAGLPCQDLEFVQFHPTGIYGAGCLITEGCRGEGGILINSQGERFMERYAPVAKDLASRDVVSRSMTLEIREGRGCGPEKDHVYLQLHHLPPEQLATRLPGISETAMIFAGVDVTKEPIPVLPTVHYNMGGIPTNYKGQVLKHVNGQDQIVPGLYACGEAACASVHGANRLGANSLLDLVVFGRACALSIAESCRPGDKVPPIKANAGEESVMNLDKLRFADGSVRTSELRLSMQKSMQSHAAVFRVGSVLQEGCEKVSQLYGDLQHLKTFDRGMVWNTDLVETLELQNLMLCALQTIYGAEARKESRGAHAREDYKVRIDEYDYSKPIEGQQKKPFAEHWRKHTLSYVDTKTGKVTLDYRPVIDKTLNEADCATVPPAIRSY
# T1 sequence (P21913 31-282): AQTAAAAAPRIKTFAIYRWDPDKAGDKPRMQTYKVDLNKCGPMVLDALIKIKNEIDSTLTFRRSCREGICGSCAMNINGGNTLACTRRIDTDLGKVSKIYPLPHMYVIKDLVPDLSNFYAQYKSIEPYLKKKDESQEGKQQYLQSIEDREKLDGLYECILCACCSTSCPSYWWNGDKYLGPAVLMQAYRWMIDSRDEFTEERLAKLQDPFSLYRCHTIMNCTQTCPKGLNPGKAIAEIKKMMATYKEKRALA
# T1 sequence (Q641Z9 1-169): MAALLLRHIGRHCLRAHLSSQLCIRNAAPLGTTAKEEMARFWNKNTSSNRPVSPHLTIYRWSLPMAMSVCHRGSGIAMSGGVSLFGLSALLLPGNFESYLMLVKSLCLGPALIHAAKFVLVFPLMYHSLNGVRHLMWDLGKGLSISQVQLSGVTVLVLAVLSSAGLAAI
# T1 sequence (Q6PCT8 57-159): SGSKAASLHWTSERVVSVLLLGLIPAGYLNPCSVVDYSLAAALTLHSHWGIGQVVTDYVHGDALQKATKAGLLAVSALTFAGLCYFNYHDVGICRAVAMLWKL
# Description: (§1) KIs were incubated with submitochondrial particles (1 mg/ml) for 15 min and then RCC I–V activities measured. […] The activities of DMSO-treated samples (controls) were set as 1. […] The difference between the activity from rotenone-containing buffer and rotenone-absent buffer was considered as RCC I activity. […] For measuring RCC I/V and II activity, the changes in absorbance at 340 and 600 nm, respectively, were determined every 1 min for 6 min. For measuring RCC III and RCC IV, the changes in absorbance at 550 nm were measured every 10 s for 2 min.
# RCC IV = RCC IV activity in submitochondrial particles; assay type: biochemical, rat; design: key to RCC IV at 50XCmax / RCC IV at 100XCmax: activity relative to DMSO-treated controls (control set as 1 = 100%); settings: 50XCmax; relative to DMSO treated samples; in %
# Description: as §1
# [1] = test system: isolated rat liver mitochondria; assay: Mitochondrial swelling (absorbance at 535 nm); assay type: biochemical; settings: difference in signal between KI and DMSO treated samples at the end of experiments; on Swelling 5XCmax: key: 0 indicates that the drug had no effects (negative)
# [2] = test system: isolated rat liver mitochondria; assay: Mitochondrial ROS production (CM-H2DCFDA); settings: DMSO treated samples set as 1
# [3] = therapeutic maximal blood concentration, ref product labeling, cited from earlier work
# RCC I = RCC I activity in submitochondrial particles; assay type: biochemical, rat; design: key to RCC I at 10XCmax / RCC I at 100XCmax / RCC I at 50XCmax / RCC I at 30XCmax / RCC I at 20XCmax: activity relative to DMSO-treated controls (control set as 1 = 100%); settings: 10XCmax; relative to DMSO treated samples
# Description: as §1
# RCC III = RCC III activity in submitochondrial particles; assay type: biochemical, rat; design: key to RCC III at 100XCmax: activity relative to DMSO-treated controls (control set as 1 = 100%); settings: 100XCmax; relative to DMSO treated samples
# Description: as §1
# RCC V = RCC V activity in submitochondrial particles; assay type: biochemical, rat; settings: relative to DMSO treated samples; on RCC V at 5XCmax: key: 0 indicates that the drug had no effects (negative)
# Description: as §1
# [4] = test system: isolated rat liver mitochondria; settings: positive control alamethicin treated samples
# [5] = test system: isolated rat liver mitochondria; assay: Mitochondrial oxygen consumption (glutamate/malate or succinate driven, state 4 and state 3); assay type: biochemical; settings: DMSO treated samples set as 1; on State 3 respiration driven by succinate at 10XCmax: key: 0 indicates that the drug had no effects (negative); on State 3 respiration driven by succinate at 1XCmax: key: 0 indicates that the drug had no effects (negative)
# Description: Rats were anesthetized by an intraperitoneal injection of Nembutal and the liver perfused with PBS to remove the blood. The liver was then cut into small pieces and homogenized using a Dounce type homogenizer in the ice-cold isolation buffer (IB) containing 200 mM sucrose, 10 mM Tris-MOPS, 1 mM EGTA (pH 7.4). The sample was then centrifuged at 600g for 10 min. The supernatant was further centrifuged at 7500g for 10 min, and the pellets was washed once with the IB and centrifuged again at 7500g for 10 min to collect mitochondria. […] Before drug treatment, the protein concentration was adjusted to 1 mg/ml using appropriate buffer. […] Briefly, mitochondrial and cytosolic fractions from four different preparations using four rats were diluted using the Laemmli protein loading buffer and subject to SDS-PAGE with 4–20% gradient gels. The proteins were blotted to PVDF membranes and detected using antibodies against GAPDH, ATP5A, UQCRC2, SDHB, and NDUFB8.
# The aliquoted stock solutions were kept for less than one month and each tube was used only once. The KIs were added to the mitochondria at 1:1000 dilutions. […] The Cmax data were from clinical trials which used FDA recommend dosages, route of administration, and duration. […] The final concentration of DMSO for drug treatment was always 0.1%, and control treatments were 0.1% DMSO.
# Briefly, mitochondria were incubated with the KIs for 5 min, and then split evenly and loaded to the sample tubes of two Oxytherm systems (Hansatech Instruments Ltd), with one system used for measuring glutamate/malate driven respiration and the other succinate-driven respiration, both of which were defined as state 4 respiration. After 3 min, ADP was added to measure the maximal oxygen consumption rate, which was defined as state 3 respiration. […] The oxygen consumption rate of DMSO-treated samples (controls) was set as 1.
# [6] = test system: isolated rat liver mitochondria; assay: Mitochondrial inner membrane potential (MMP), Rhodamine 123; assay type: biochemical; settings: difference in signal between KI and DMSO treated samples at the end of experiments
# From the text: Fig. 3 KI effects on mitochondrial inner membrane potential (MMP). […] In a, c, data are means and standard derivations from three separate experiments. *p < 0.05 as compared to DMSO-treated samples at the end of experiments. In b, data are means of two independent experiments
smiles,measurement,setting,value
C[C@@H]1CCN(C(=O)CC#N)C[C@@H]1N(C)c1ncnc2[nH]ccc12 [tofacitinib citrate],RCC II at 1.0XCmax,RCC II; 1.0XCmax,0
same,RCC II at 2.5XCmax,RCC II; 2.5XCmax,0
same,RCC II at 5XCmax,RCC II; 5XCmax,0
same,RCC II at 10XCmax,RCC II; 10XCmax,0
same,RCC II at 20XCmax,RCC II; 20XCmax,0
same,RCC II at 30XCmax,RCC II; 30XCmax,0
same,RCC II at 50XCmax,RCC II; 50XCmax,0
same,RCC II at 100XCmax,RCC II; 100XCmax,0
same,RCC IV at 50XCmax,RCC IV,0
same,Swelling 1XCmax,[1]; 1XCmax,0
same,Swelling 2.5XCmax,[1]; 2.5XCmax,0
same,Swelling 5XCmax,[1]; 5XCmax,0
same,Swelling 10XCmax,[1]; 10XCmax,0
same,Swelling 20XCmax,[1]; 20XCmax,0
same,Swelling 30XCmax,[1]; 30XCmax,0
same,Swelling 50XCmax,[1]; 50XCmax,0
same,Swelling 100XCmax,[1]; 100XCmax,0
same,ROS measured by CM-H2DCFDA at 1XCmax,[2]; 1XCmax,0
same,ROS measured by CM-H2DCFDA at 2.5XCmax,[2]; 2.5XCmax,0
same,ROS measured by CM-H2DCFDA at 5XCmax,[2]; 5XCmax,0
same,ROS measured by CM-H2DCFDA at 10XCmax,[2]; 10XCmax,0
same,ROS measured by CM-H2DCFDA at 20XCmax,[2]; 20XCmax,0
same,ROS measured by CM-H2DCFDA at 30XCmax,[2]; 30XCmax,0
same,ROS measured by CM-H2DCFDA at 50XCmax,[2]; 50XCmax,0
same,ROS measured by CM-H2DCFDA at 100XCmax,[2]; 100XCmax,0
same,Cmax,[3]; read-out: Cmax at µM,0.089 µM
same,Cmax,[3],45.1 ng/mL
same,RCC I at 10XCmax,RCC I,0
same,RCC III at 100XCmax,RCC III,0
same,RCC V at 5XCmax,RCC V; 5XCmax,0
same,RCC V at 50XCmax,RCC V; 50XCmax,0
same,Cytochrome c release 1XCmax,[4]; 1XCmax,0
same,Cytochrome c release 2.5XCmax,[4]; 2.5XCmax,0
same,Cytochrome c release 5XCmax,[4]; 5XCmax,0
same,Cytochrome c release 10XCmax,[4]; 10XCmax,0
same,Cytochrome c release 20XCmax,[4]; 20XCmax,0
same,Cytochrome c release 30XCmax,[4]; 30XCmax,0
same,Cytochrome c release 50XCmax,[4]; 50XCmax,0
same,Cytochrome c release 100XCmax,[4]; 100XCmax,7.22±1.11 percentage of the positive control group
same,State 3 respiration driven by succinate at 1XCmax,[5]; 1XCmax,0
same,State 4 respiration driven by succinate at 1XCmax,[5]; 1XCmax,0
same,State 3 respiration driven by succinate at 2.5XCmax,[5]; 2.5XCmax,0
same,State 4 respiration driven by succinate at 2.5XCmax,[5]; 2.5XCmax,0
same,State 3 respiration driven by succinate at 5XCmax,[5]; 5XCmax,0
same,State 4 respiration driven by succinate at 5XCmax,[5]; 5XCmax,0
same,State 3 respiration driven by succinate at 10XCmax,[5]; 10XCmax,0
same,State 4 respiration driven by succinate at 10XCmax,[5]; 10XCmax,0
same,State 3 respiration driven by succinate at 20XCmax,[5]; 20XCmax,0
same,State 4 respiration driven by succinate at 20XCmax,[5]; 20XCmax,0
same,State 3 respiration driven by succinate at 30XCmax,[5]; 30XCmax,0
same,State 4 respiration driven by succinate at 30XCmax,[5]; 30XCmax,0
same,State 3 respiration driven by succinate at 50XCmax,[5]; 50XCmax,0
same,State 4 respiration driven by succinate at 50XCmax,[5]; 50XCmax,0
same,State 3 respiration driven by succinate at 100XCmax,[5]; 100XCmax,0
same,State 4 respiration driven by succinate at 100XCmax,[5]; 100XCmax,0
same,MMP measured by Rhodamine 123 at 1XCmax,[6]; 1XCmax,0
same,MMP measured by Rhodamine 123 at 2.5XCmax,[6]; 2.5XCmax,0
same,MMP measured by Rhodamine 123 at 5XCmax,[6]; 5XCmax,0
same,MMP measured by Rhodamine 123 at 10XCmax,[6]; 10XCmax,0
same,MMP measured by Rhodamine 123 at 20XCmax,[6]; 20XCmax,0
same,MMP measured by Rhodamine 123 at 30XCmax,[6]; 30XCmax,0
same,MMP measured by Rhodamine 123 at 50XCmax,[6]; 50XCmax,0
same,MMP measured by Rhodamine 123 at 100XCmax,[6]; 100XCmax,0
